Consider 16 compounds from publication PMC8162404, “Proteomimetic surface fragments distinguish targets by function” (Chemical Science, 2020).

SMILES strings stand for the structures.

For test [1], the target named is T1, CaM (Bos taurus, UniProt P62157).
T1 construct: made in house; host or cells: E. coli BL21 (DE3)
In words: Competition pull-down with native ligand TRPV1-Ct15. The following applies: H14 library; competitor peptide 200 µM; read-out: Surface mapping KD (apparent), competition. In kind it is binding, bovine.

In test [2] the target is T2, Gal-1 (Homo sapiens, UniProt P09382).
T2 construct: made in house; host or cells: E. coli BL21(DE3)
T2 sequence (P09382 whole entry): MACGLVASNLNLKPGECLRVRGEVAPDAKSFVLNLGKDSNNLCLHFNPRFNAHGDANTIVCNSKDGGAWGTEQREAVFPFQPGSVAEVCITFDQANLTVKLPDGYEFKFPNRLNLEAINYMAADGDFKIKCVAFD
In words: Competition pull-down with lactose. In kind it is binding. The following applies: H14 library; lactose 10 mM; read-out: Surface mapping KD (apparent), competition. As to the method: Interactions between the H14 helical LSMs and the targets were abundant, but safe recognition of the native PPI interfaces on the targets is a criterion of druggability. To gain insight into the ability of the LSMs to detect orthosteric spots, we carried out pull-down assays in the presence of the native ligands (Table 2) of the targets (Fig. 5). For highlighting the effect of the competitor on the binding fingerprints, KD ratios and the LSM replacement percentages were calculated and are represented as heat maps (see ESI, Fig. S7 ^†). […] This could be explained by the glycan selective native recognition domain of the protein. We note that the replacement pattern for a single probe can, in theory, be complex. […] Moreover, a single probe can bind to both orthosteric and non-orthosteric spots, which limits overall displacement levels. To avoid overlooking interesting orthosteric weak binders, direct replacement levels were assessed (see ESI, Fig. S7 ^†).
Pull-down assay and data analysis
Pull-down assay. LSM sublibraries were screened separately as previously described.(2) Experiments were performed in the following buffers: (i) 20 mM pH 7.4 HEPES, 150 mM NaCl, 5 mM CaCl2 for CaM; (ii) 50 mM pH 7.4 HEPES, 150 mM NaCl, 1 mM TCEP, 1 mM CaCl2 for S100 proteins; (iii) 20 mM pH 7.4 HEPES, 150 mM NaCl, 1 mM TCEP for Gal-1 and (iv) 20 mM pH 7.4 HEPES, 150 mM NaCl for RecQ-WH. Assays were performed in paper filter spin cups (Thermo Scientific) with sample volumes of 100 µl. Hexahistidine-tagged proteins were immobilized on previously washed Co-NTA resin (TALON, Takara Bio USA, Inc., Mountain View, CA) in 64 µM final concentration. LSM sublibrary was added, in which each of the 64 library members were used at a concentration of 1 µM. Samples were incubated at room temperature for 30 min with shaking at 100 rpm. Then, samples were centrifuged at 1000 rpm for 2 min and washed with 100 µl pull-down buffer to remove unbound compounds.
The control experiments were performed using the same compounds and the resin but without the immobilized protein. In case of competitive assays, competitor peptides were added to LSM sublibrary samples in 200 µM final concentration. In the case of Gal-1, lactose (competitor) was used in a concentration of 10 mM. Experiments were performed at least twice. Mean […]
LC-MS methods and parameters. HPLC/ESI-MS analysis was used to characterize the samples from the pull-down assay. LC-MS analysis was performed with a Thermo Scientific Dionex UltiMate 3000 HPLC system interfaced to an LTQ ion trap mass spectrometer (Thermo Electron Corp., San Jose, CA, USA). Samples were injected onto an Aeris Widepore XB-C18 (250 x 4.6 mm) analytical HPLC column using gradient elution 5-80 % solution B during 25 minutes. For pull-down samples, eluent composition was 0.1% acetic acid in distilled water (Solution A) and 0.1% acetic acid in acetonitrile (solution B). Mass spectra were acquired in full scan mode from 200 to 2000 m/z range. For overlapping peaks, selective reaction monitoring (SRM) was […]
MS data analysis. Thermo Xcalibur 2.2 software was used for peak identification and integration. The majority of the foldameric fragments could be resolved independently via HPLC-MS/MS measurements based on molecular weight, MS fragmentation pattern and retention time. Peaks of some foldamers with β3-hIle or β3-hLeu in position R2 could not be resolved, these were integrated and averaged. In the processing method, each sample component was associated to a chromatographic peak based on previously identified mass (m/z) and retention time (ref (2) and Table S7-10). Using ICIS peak detection algorithm, the general detection and integration criteria were: smoothing points: 5, baseline window: 80, area noise factor: 5, peak noise factor: 10. Using these processing setups, all raw data files were reprocessed together and analyzed. Errors in peak identification during the automatic processing were corrected manually.
Calculation of the discussed parameters […]

Test [3] has as its target T1, CaM. As to the kind of experiment: Pull-down assay with immobilized protein and LSM libraries. In kind it is binding, bovine. The following applies: H14 library; 1:2 stoichiometry assumed; read-out: Surface mapping KD (apparent). A digest of the protocol: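 His-tagged protein immobilized on Co-NTA resin, equilibrated 30 min at room temperature with LSM sublibraries (64 members, […]), equimolar protein to total probe. CaM buffer: 20 mM HEPES pH 7.4, 150 mM NaCl, 5 mM CaCl2. Bound fractions from HPLC-MS loss of unbound probe versus protein-free resin control; Kd derived.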

For a further test, the target named is T3, S100A4 (Homo sapiens, UniProt P26447).
T3 construct: made in house; host or cells: Escherichia coli BL21(DE3)
T3 sequence (P26447 whole entry): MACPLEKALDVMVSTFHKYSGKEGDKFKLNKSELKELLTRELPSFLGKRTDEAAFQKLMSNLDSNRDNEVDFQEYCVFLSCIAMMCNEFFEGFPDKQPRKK
Described as above. In kind it is binding. Particulars: for Kd: H14 library, 1:1 binding assumed, read-out: Surface mapping KD (apparent). A digest of the protocol:
(§1)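 Buffers were HEPES pH 7.4 with 150 mM NaCl, plus 1 mM TCEP and 1 mM CaCl2 (50 mM HEPES) for S100A4 and S100B, 1 mM TCEP for Gal-1, and no additive for RecQ-WH. Immobilized protein at 64 µM was equilibrated 30 min with the LSM sublibrary, and unbound probes were measured by LC-MS.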

Another test concerns the target T4, S100B (Homo sapiens, UniProt P04271).
T4 construct: made in house; host or cells: Escherichia coli BL21(DE3)
T4 sequence (P04271 1-92): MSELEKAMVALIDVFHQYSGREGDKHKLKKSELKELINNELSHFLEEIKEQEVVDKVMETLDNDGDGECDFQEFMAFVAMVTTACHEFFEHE
The description is as above. In kind it is binding. Particulars: for Kd: H14 library, 1:1 binding assumed, read-out: Surface mapping KD (apparent). A digest of the protocol:
as §1

The target of test [4] is T2, Gal-1. The test is described as above. In kind it is binding. The following applies: H14 library; 1:1 binding assumed; read-out: Surface mapping KD (apparent). A digest of the protocol: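 His-tagged protein immobilized on Co-NTA resin (64 µM) in 20 mM HEPES pH 7.4, 150 mM NaCl, equilibrated 30 min at room temperature with foldamer LSM sublibraries at equimolar total concentration. Unbound fractions quantified by HPLC-MS versus protein-free resin control; apparent KD assumes 1:1 binding.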

The mark [5] stands for this setting: H14 probes selected for validation.

As to `CC(C)[C@@H](CC(=O)N[C@H]1CCCC[C@@H]1C(N)=O)NC(=O)[C@H]1CCCC[C@@H]1NC(=O)[C@H]1CCCC[C@@H]1NC(=O)C[C@H](CCC(=O)O)NC(=O)[C@H]1CCCC[C@@H]1N` [H14 EV], the Kd on CaM [1] was found to be 492 µM; at Gal-1 [2] it was 300 µM.
As to `NCCCC[C@@H](CC(=O)N[C@H]1CCCC[C@@H]1C(=O)N[C@H]1CCCC[C@@H]1C(=O)N[C@@H](CC(=O)O)CC(=O)N[C@H]1CCCC[C@@H]1C(N)=O)NC(=O)[C@H]1CCCC[C@@H]1N` [H14 KD], the Kd turned out to be 365 µM at CaM [1] and 290 µM at Gal-1 [2].
As to `NCCCC[C@@H](CC(=O)N[C@H]1CCCC[C@@H]1C(=O)N[C@H]1CCCC[C@@H]1C(=O)N[C@H](CC(=O)N[C@H]1CCCC[C@@H]1C(N)=O)Cc1c[nH]c2ccccc12)NC(=O)[C@H]1CCCC[C@@H]1N` [H14 KW], the Kd at CaM [1] is 398 µM; at CaM [3], 3 µM; on S100A4 it was 184 µM; on S100B it was 28 µM.
As to `NC(=O)C[C@@H](CC(=O)N[C@H]1CCCC[C@@H]1C(=O)N[C@H]1CCCC[C@@H]1C(=O)N[C@@H](CC(=O)O)CC(=O)N[C@H]1CCCC[C@@H]1C(N)=O)NC(=O)[C@H]1CCCC[C@@H]1N` [H14 ND], the Kd turned out to be 471 µM at CaM [1], 211 µM on CaM [3], 229 µM at Gal-1 [4] and 294 µM on Gal-1 [2].
The corresponding values for `CSCC[C@@H](CC(=O)N[C@H]1CCCC[C@@H]1C(N)=O)NC(=O)[C@H]1CCCC[C@@H]1NC(=O)[C@H]1CCCC[C@@H]1NC(=O)C[C@H](CC(N)=O)NC(=O)[C@H]1CCCC[C@@H]1N` [H14 NM] are 452 µM, 50 µM, 350 µM and 406 µM.
The corresponding values for `NC(=O)C[C@@H](CC(=O)N[C@H]1CCCC[C@@H]1C(=O)N[C@H]1CCCC[C@@H]1C(=O)N[C@@H](CO)CC(=O)N[C@H]1CCCC[C@@H]1C(N)=O)NC(=O)[C@H]1CCCC[C@@H]1N` [H14 NS] are 279 µM, 184 µM, 310 µM and 427 µM.
The corresponding values for `C[C@@H](O)[C@@H](CC(=O)N[C@H]1CCCC[C@@H]1C(N)=O)NC(=O)[C@H]1CCCC[C@@H]1NC(=O)[C@H]1CCCC[C@@H]1NC(=O)C[C@H](CC(N)=O)NC(=O)[C@H]1CCCC[C@@H]1N` [H14 NT] are 336 µM, 187 µM, 350 µM and 500 µM.
For `C[C@@H](CC(=O)N[C@H]1CCCC[C@@H]1C(N)=O)NC(=O)[C@H]1CCCC[C@@H]1NC(=O)[C@H]1CCCC[C@@H]1NC(=O)C[C@H](CCC(N)=O)NC(=O)[C@H]1CCCC[C@@H]1N` [H14 QA], the Kd at CaM [1] turned out to be 211 µM; at CaM [3] it was 174 µM; at Gal-1 [4], 349 µM; on Gal-1 [2], 444 µM.
As to `NC(=O)CC[C@@H](CC(=O)N[C@H]1CCCC[C@@H]1C(=O)N[C@H]1CCCC[C@@H]1C(=O)N[C@@H](CCC(=O)O)CC(=O)N[C@H]1CCCC[C@@H]1C(N)=O)NC(=O)[C@H]1CCCC[C@@H]1N` [H14 QE], the Kd on CaM [1] was found to be 246 µM; on CaM [3], 221 µM; at Gal-1 [4], 295 µM; at Gal-1 [2], 380 µM.
On to `NC(=O)CC[C@@H](CC(=O)N[C@H]1CCCC[C@@H]1C(N)=O)NC(=O)[C@H]1CCCC[C@@H]1NC(=O)[C@H]1CCCC[C@@H]1NC(=O)C[C@H](CCC(N)=O)NC(=O)[C@H]1CCCC[C@@H]1N` [H14 QQ], for which the Kd amounted to 295 µM at CaM [1], 186 µM at CaM [3], 273 µM at Gal-1 [4] and 467 µM at Gal-1 [2].
`NC(=O)CC[C@@H](CC(=O)N[C@H]1CCCC[C@@H]1C(=O)N[C@H]1CCCC[C@@H]1C(=O)N[C@@H](CO)CC(=O)N[C@H]1CCCC[C@@H]1C(N)=O)NC(=O)[C@H]1CCCC[C@@H]1N` [H14 QS]: the Kd came to 336 µM on CaM [1], 187 µM at CaM [3], 350 µM on Gal-1 [4] and 500 µM at Gal-1 [2].
In the case of `CC(C)[C@@H](CC(=O)N[C@H]1CCCC[C@@H]1C(N)=O)NC(=O)[C@H]1CCCC[C@@H]1NC(=O)[C@H]1CCCC[C@@H]1NC(=O)C[C@H](CCC(N)=O)NC(=O)[C@H]1CCCC[C@@H]1N` [H14 QV], the Kd was 229 µM on CaM [1], 94 µM on CaM [3], 349 µM at Gal-1 [4] and 372 µM at Gal-1 [2].
Consider `C[C@@H](CC(=O)N[C@H]1CCCC[C@@H]1C(N)=O)NC(=O)[C@H]1CCCC[C@@H]1NC(=O)[C@H]1CCCC[C@@H]1NC(=O)C[C@H](CO)NC(=O)[C@H]1CCCC[C@@H]1N` [H14 SA], for which the Kd was 362 µM at CaM [1], 384 µM on CaM [3], 389 µM on Gal-1 [4] and 432 µM on Gal-1 [2].
Consider `NC(=O)[C@H]1CCCC[C@@H]1NC(=O)C[C@H](CCC(=O)O)NC(=O)[C@H]1CCCC[C@@H]1NC(=O)[C@H]1CCCC[C@@H]1NC(=O)C[C@H](CO)NC(=O)[C@H]1CCCC[C@@H]1N` [H14 SE], for which the Kd was 232 µM at CaM [1], 236 µM on CaM [3], 326 µM on Gal-1 [4] and 415 µM on Gal-1 [2].
Regarding `CSCC[C@@H](CC(=O)N[C@H]1CCCC[C@@H]1C(N)=O)NC(=O)[C@H]1CCCC[C@@H]1NC(=O)[C@H]1CCCC[C@@H]1NC(=O)C[C@@H](NC(=O)[C@H]1CCCC[C@@H]1N)[C@@H](C)O` [H14 TM], the values for the Kd at CaM [1], at CaM [3] and at S100A4 were 113 µM, 46 µM and 13 µM, respectively. Besides, the “Binding” value is on record as “binds” on S100A4 (H14 probes) and “does not” at S100B (H14 probes). For the same compound, the “Affinity class of probe (high, medium, low) in pull-down” value on S100A4 (setting [5]) is given as “high”; at S100B (setting [5]) it was “low”.
Regarding `NC(=O)C[C@@H](CC(=O)N[C@H]1CCCC[C@@H]1C(N)=O)NC(=O)[C@H]1CCCC[C@@H]1NC(=O)[C@H]1CCCC[C@@H]1NC(=O)C[C@H](Cc1c[nH]c2ccccc12)NC(=O)[C@H]1CCCC[C@@H]1N` [H14 WN], the Kd was 294 µM on CaM [1], 14 µM at CaM [3], 224 µM at S100A4 and 168 µM at S100B.
